From patent US20060293315A1, “Intermediates of novel heterocyclic compounds having antibacterial activity and process for their preparation” (Dr. Reddy's Laboratories Ltd., priority 2001, published 2006)

Row | melting point [°C] | Structure (SMILES)
1 | 203 | CCC(=O)NC[C@H]1CN(c2ccc(N3CCOC3=O)c(F)c2)C(=O)O1 [Example 67]
2 | 211 | CCCC(=O)NC[C@H]1CN(c2ccc(N3CCOC3=O)c(F)c2)C(=O)O1 [Example 68]
3 | 187 | CCCCC(=O)NC[C@H]1CN(c2ccc(N3CCOC3=O)c(F)c2)C(=O)O1 [Example 69]
4 | 196 | C=CC(=O)NC[C@H]1CN(c2ccc(N3CCOC3=O)c(F)c2)C(=O)O1 [Example 71]
5 | 220 | CC(=O)NC[C@H]1CN(c2ccc(N3CCSC3=S)c(F)c2)C(=O)O1 [Example 76]
6 | 171 | CC(=O)NC[C@H]1CN(c2ccc(N3CCN(C)C3=S)c(F)c2)C(=O)O1 [Example 77]
7 | 120 | CC(=O)NC[C@H]1CN(c2ccc(N3CCOC3=O)cc2F)C(=O)O1 [Example 85]
8 | 230 | CC(=O)NC[C@H]1CN(c2ccc(N3CC(=O)N(C)C3)c(F)c2)C(=O)O1 [Example 90]
9 | 182 | CC(=O)NC[C@H]1CN(c2ccc(N3CCN(C)C3=O)c(F)c2)C(=O)O1 [Example 92]
10 | 217 | CC(=O)NC[C@H]1CN(c2ccc(N3CCN(C)C3=O)cc2)C(=O)O1 [Example 93]
11 | 182 | CC(=O)NC[C@H]1CN(c2ccc(N3CCN(c4ccccc4)C3=O)c(F)c2)C(=O)O1 [Example 95]
12 | 194 | CC(=O)NC[C@H]1CN(c2ccc(N3CCN(c4ccc(F)cc4)C3=O)c(F)c2)C(=O)O1 [Example 96]
13 | 171 | CC(=S)NC[C@H]1CN(c2ccc(N3CCOC3=O)c(F)c2)C(=O)O1 [Example 98]
14 | 111 | CC(=S)NC[C@H]1CN(c2ccc(N3CCN(C)C3=S)c(F)c2)C(=O)O1 [Example 100]

The remaining lines, values behind:

Row | Structure (SMILES) | melting point [°C]
15 | NC[C@H]1CN(c2ccc(N3CCOC3=O)c(F)c2)C(=O)O1 [Example 53] | 147
16 | NC[C@H]1CN(c2ccc(N3CCOC3=O)cc2)C(=O)O1 [Example 59] | 189 to 191
17 | CCCCCCC(=O)NC[C@H]1CN(c2ccc(N3CCOC3=O)c(F)c2)C(=O)O1 [Example 70] | 131
18 | O=C1O[C@@H](CNC(=O)C(F)(F)F)CN1c1ccc(N2CCOC2=O)c(F)c1 [Example 72] | 194
19 | CCOC(=O)C(=O)NC[C@H]1CN(c2ccc(N3CCOC3=O)c(F)c2)C(=O)O1 [Example 73] | 160
20 | CC(=O)NC[C@H]1CN(c2ccc(-n3c(=O)oc4cc(C)ccc43)c(F)c2)C(=O)O1 [Example 79] | 213
21 | CC(=O)NC[C@H]1CN(c2ccc(-n3c(=O)oc4ccc(C)cc43)c(F)c2)C(=O)O1 [Example 80] | 202
22 | CC(=O)NC[C@H]1CN(c2ccc(N3CCOC3=O)c(C(F)(F)F)c2)C(=O)O1 [Example 81] | 143
23 | CCC(=O)NC[C@H]1CN(c2ccc(N3CCOC3=O)c(C(F)(F)F)c2)C(=O)O1 [Example 82] | 143
24 | C=CC(=O)NC[C@H]1CN(c2ccc(N3CCOC3=O)c(C(F)(F)F)c2)C(=O)O1 [Example 84] | 191
25 | CC(=O)NC[C@H]1CN(c2cc(F)c(N3CCOC3=O)c(F)c2)C(=O)O1 [Example 86] | 219
26 | CCC(=O)NC[C@H]1CN(c2cc(F)c(N3CCOC3=O)c(F)c2)C(=O)O1 [Example 87] | 224
27 | CC(=O)NC[C@H]1CN(c2ccc(N3CCOC3=O)cc2)C(=O)O1 [Example 88] | 231
28 | CC(=O)NC[C@H]1CN(c2ccc(-n3c(=O)oc4ccccc43)cc2)C(=O)O1 [Example 89] | 229
29 | CC(=O)NC[C@H]1CN(c2ccc(N3CCN(Cc4ccccc4)C3=O)cc2)C(=O)O1 [Example 94] | 204
30 | O=C1O[C@@H](CNC(=S)CC(F)(F)F)CN1c1ccc(N2CCOC2=O)c(F)c1 [Example 99] | 165
31 | CC(=S)NC[C@H]1CN(c2ccc(-n3c(=O)oc4ccccc43)c(F)c2)C(=O)O1 [Example 101] | 137
